# pIC50: −log10 of the molar value. *1 amine or outer side, *2 acyl side, *3 side chain or, on linkers, in order; H or OH if unused. Where a SMILES comes first, the peptide text is derived from it. Bridges are numbered along the chain shown (N, C = ends). [ ]: non-standard residue; d: D form. The star is where a group is joined. ξ: configuration not given here. Trp(1-Me) = Cn1cc(C[C@H](N)C(=O)O)c2ccccc21; Bip = N[C@@H](Cc1ccc(-c2ccccc2)cc1)C(=O)O; Phe(3-Me) = Cc1cccc(C[C@H](N)C(=O)O)c1; γGlu = O=C(O)[C@H](CCC(=O)[*:2])N[*:1]; NMeAEEA = CN(CCOCCOCC(=O)[*:2])[*:1]; 4Pal = N[C@@H](Cc1ccncc1)C(=O)O; Cha = N[C@@H](CC1CCCCC1)C(=O)O; Cit = NC(=O)NCCC[C@H](N)C(=O)O; Ile(3ξ) = CCC(C)[C@H](N)C(=O)O; Thr(3ξ) = CC(O)[C@H](N)C(=O)O; 12Ado = NCCCCCCCCCCCC(=O)O; Carboxymethyl = O=C(O)C*; NMeA = CN[C@@H](C)C(=O)O; Orn = NCCC[C@H](N)C(=O)O; Aun = NCCCCCCCCCCC(=O)O; Dab = NCC[C@H](N)C(=O)O; Dap = NC[C@H](N)C(=O)O
# Target: T1, PD-1/PD-L1 interaction (PE-labeled human PD-L1-Ig binding to Jurkat cell line over-expressing human PD-1) (Homo sapiens, UniProt Q15116)
# T1 construct: expressed in transfected cells; host or cells: Jurkat
# T1 sequence (Q15116 25-288): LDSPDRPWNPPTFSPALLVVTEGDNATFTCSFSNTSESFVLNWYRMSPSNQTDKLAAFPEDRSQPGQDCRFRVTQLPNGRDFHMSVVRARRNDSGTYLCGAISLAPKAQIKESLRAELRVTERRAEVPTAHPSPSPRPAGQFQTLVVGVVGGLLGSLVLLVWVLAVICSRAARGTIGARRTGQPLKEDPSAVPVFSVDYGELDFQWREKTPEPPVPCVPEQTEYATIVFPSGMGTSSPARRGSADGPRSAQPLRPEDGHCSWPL
# Experiment: Jurkat-PD-1 Cell Binding High-Content Screening Assay (CBA)
# Conditions: Jurkat-hPD-1 cells, PE-labeled PD-L1-Ig 20 nM final; read-out: Jurkat HPD1 PDL1 IC50
# Procedure, shortened: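 Read-out: high-content imaging of cell-bound PE fluorescence, with Hoechst 33342 nuclear counterstain after paraformaldehyde fixation. Before labeled ligand (20 nM final, 1 h) was added, compound sat on the cells for 2 h at 37 °C in DMEM/10% FCS.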
row,Compound,pIC50
1,CC(=O)NCCCC[C@@H]1NC(=O)[C@H](Cc2ccc(-c3ccccc3)cc2)NC(=O)[C@H](C(C)C)NC(=O)[C@H](Cc2c[nH]c3ccccc23)NC(=O)[C@H](CC(=O)O)NC(=O)[C@H](Cc2ccc(OCC(=O)O)cc2)NC(=O)[C@H](C(C)O)NC(=O)CSC[C@@H](C(=O)N[C@@H](CCCN)C(=O)N[C@@H](CO)C(=O)NCCCCCCCCCCCC(=O)O)NC(=O)[C@H](CCCN)NC(=O)[C@H](C(C)C)NC(=O)[C@H](CC2CCCCC2)NC(=O)[C@H](CCN)NC(=O)[C@@H](CC(C)C)NC(=O)[C@H](C)N(C)C1=O (stereo partly drawn) [Example 2406] ({CH2CO}-[Thr(3ξ)]Y(Carboxymethyl)DWV[Bip]K(Ac)[NMeA][dL][Dab][Cha]V[Orn]C[Orn]S[12Ado]-OH; thioether N-14),6.80
2,CC(=O)NCCCC[C@@H]1NC(=O)[C@H](Cc2ccc(-c3ccccc3)cc2)NC(=O)[C@H](C(C)C)NC(=O)[C@H](Cc2c[nH]c3ccccc23)NC(=O)[C@H](CC(=O)O)NC(=O)[C@H](Cc2ccc(OCC(=O)O)cc2)NC(=O)[C@H](CN)NC(=O)CSC[C@@H](C(=O)N[C@@H](CCCN)C(=O)N[C@@H](CO)C(=O)NCCCCCCCCCCCC(=O)O)NC(=O)[C@H](C(C)O)NC(=O)[C@H](C(C)C)NC(=O)[C@H](CC2CCCCC2)NC(=O)[C@H](CCN)NC(=O)[C@@H](CC(C)C)NC(=O)[C@H](C)N(C)C1=O (stereo partly drawn) [Example 2407] ({CH2CO}-[Dap]Y(Carboxymethyl)DWV[Bip]K(Ac)[NMeA][dL][Dab][Cha]V[Thr(3ξ)]C[Orn]S[12Ado]-OH; thioether N-14),7.18
3,CCC(C)[C@@H]1NC(=O)[C@H](Cc2ccc(-c3ccccc3)cc2)NC(=O)[C@H](C(C)C)NC(=O)[C@H](Cc2c[nH]c3ccccc23)NC(=O)[C@H](CC(=O)O)NC(=O)[C@H](Cc2ccc(OCC(=O)O)cc2)NC(=O)[C@H](C(C)O)NC(=O)CSC[C@@H](C(=O)N[C@@H](CCCN)C(=O)N[C@@H](CO)C(=O)NCCCCCCCCCCCC(=O)O)NC(=O)[C@H](CCCN)NC(=O)[C@H](C(C)C)NC(=O)[C@H](CC2CCCCC2)NC(=O)[C@H](CCN)NC(=O)[C@@H](CC(C)C)NC(=O)[C@H](C)N(C)C1=O (stereo partly drawn) [Example 2408] ({CH2CO}-[Thr(3ξ)]Y(Carboxymethyl)DWV[Bip][Ile(3ξ)][NMeA][dL][Dab][Cha]V[Orn]C[Orn]S[12Ado]-OH; thioether N-14),6.64
4,CCC(C)[C@@H]1NC(=O)[C@H](Cc2ccc(-c3ccccc3)cc2)NC(=O)[C@H](C(C)C)NC(=O)[C@H](Cc2c[nH]c3ccccc23)NC(=O)[C@H](CC(=O)O)NC(=O)[C@H](Cc2ccc(OCC(=O)O)cc2)NC(=O)[C@H](CN)NC(=O)CSC[C@@H](C(=O)N[C@@H](CCCN)C(=O)N[C@@H](CO)C(=O)NCCCCCCCCCCCC(=O)O)NC(=O)[C@H](C(C)O)NC(=O)[C@H](C(C)C)NC(=O)[C@H](CC2CCCCC2)NC(=O)[C@H](CCN)NC(=O)[C@@H](CC(C)C)NC(=O)[C@H](C)N(C)C1=O (stereo partly drawn) [Example 2409] ({CH2CO}-[Dap]Y(Carboxymethyl)DWV[Bip][Ile(3ξ)][NMeA][dL][Dab][Cha]V[Thr(3ξ)]C[Orn]S[12Ado]-OH; thioether N-14),6.96
5,CCC(C)[C@@H]1NC(=O)[C@H](Cc2ccc(-c3ccccc3)cc2)NC(=O)[C@H](C(C)C)NC(=O)[C@H](Cc2c[nH]c3ccccc23)NC(=O)[C@H](CC(=O)O)NC(=O)[C@H](Cc2ccc(OCC(=O)O)cc2)NC(=O)[C@H](C(C)O)NC(=O)CSC[C@@H](C(=O)N[C@@H](CCCN)C(=O)N[C@@H](CO)C(=O)NCCCCCCCCCCCC(=O)O)NC(=O)[C@H](C(C)O)NC(=O)[C@H](C(C)C)NC(=O)[C@H](CC2CCCCC2)NC(=O)[C@H](CCN)NC(=O)[C@@H](CC(C)C)NC(=O)[C@H](C)N(C)C1=O (stereo partly drawn) [Example 2410] ({CH2CO}-[Thr(3ξ)]Y(Carboxymethyl)DWV[Bip][Ile(3ξ)][NMeA][dL][Dab][Cha]V[Thr(3ξ)]C[Orn]S[12Ado]-OH; thioether N-14),6.97
6,CC(=O)NCCCC[C@@H]1NC(=O)[C@H](CC2CCCCC2)NC(=O)[C@H](CCN)NC(=O)[C@@H](CC(C)C)NC(=O)[C@H](C)N(C)C(=O)[C@H](CCCNC(N)=O)NC(=O)[C@H](Cc2ccc(-c3ccccc3)cc2)NC(=O)[C@H](Cc2ccc(O)cc2)NC(=O)[C@H](Cc2cccc(C)c2)NC(=O)[C@H](CC(=O)O)NC(=O)[C@H](Cc2ccc(OCC(=O)O)cc2)NC(=O)[C@H](Cc2ccncc2)NC(=O)CSC[C@@H](C(=O)N[C@@H](CCCN)C(=O)N[C@@H](CO)C(=O)NCCCCCCCCCCCC(=O)O)NC(=O)[C@H](C(C)O)NC1=O (stereo partly drawn) [Example 2411] ({CH2CO}-[4Pal]Y(Carboxymethyl)D[Phe(3-Me)]Y[Bip][Cit][NMeA][dL][Dab][Cha]K(Ac)[Thr(3ξ)]C[Orn]S[12Ado]-OH; thioether N-14),7.42

# The remaining lines, values ahead:
row,pIC50,Compound
1,7.89,Cc1cccc(C[C@@H]2NC(=O)[C@H](CC(=O)O)NC(=O)[C@H](Cc3ccc(OCC(=O)O)cc3)NC(=O)[C@H](C(C)O)NC(=O)CSC[C@@H](C(=O)N[C@@H](CCCN)C(=O)N[C@@H](CO)C(=O)NCCCCCCCCCCCC(=O)O)NC(=O)[C@H](C(C)O)NC(=O)[C@H](C(C)C)NC(=O)[C@H](CC3CCCCC3)NC(=O)[C@H](CCN)NC(=O)[C@@H](CC(C)C)NC(=O)[C@H](C)N(C)C(=O)[C@H](CCCNC(N)=O)NC(=O)[C@H](Cc3ccc(-c4ccccc4)cc3)NC(=O)[C@H](C(C)C)NC2=O)c1 (stereo partly drawn) [Example 2412] ({CH2CO}-[Thr(3ξ)]Y(Carboxymethyl)D[Phe(3-Me)]V[Bip][Cit][NMeA][dL][Dab][Cha]V[Thr(3ξ)]C[Orn]S[12Ado]-OH; thioether N-14)
2,7.78,Cc1cccc(C[C@@H]2NC(=O)[C@H](CC(=O)O)NC(=O)[C@H](Cc3ccc(OCC(=O)O)cc3)NC(=O)[C@H](CN)NC(=O)CSC[C@@H](C(=O)N[C@@H](CCCN)C(=O)N[C@@H](CO)C(=O)NCCCCCCCCCCCC(=O)O)NC(=O)[C@H](C(C)O)NC(=O)[C@H](C(C)C)NC(=O)[C@H](CC3CCCCC3)NC(=O)[C@H](CCN)NC(=O)[C@@H](CC(C)C)NC(=O)[C@H](C)N(C)C(=O)[C@H](CCCNC(N)=O)NC(=O)[C@H](Cc3ccc(-c4ccccc4)cc3)NC(=O)[C@H](C(C)C)NC2=O)c1 (stereo partly drawn) [Example 2413] ({CH2CO}-[Dap]Y(Carboxymethyl)D[Phe(3-Me)]V[Bip][Cit][NMeA][dL][Dab][Cha]V[Thr(3ξ)]C[Orn]S[12Ado]-OH; thioether N-14)
3,7.35,Cc1cccc(C[C@@H]2NC(=O)[C@H](CC(=O)O)NC(=O)[C@H](Cc3ccc(OCC(=O)O)cc3)NC(=O)[C@H](CN)NC(=O)CSC[C@@H](C(=O)N(C)CCOCCOCC(=O)NCCCCCCCCCCC(=O)O)NC(=O)[C@H](CCCN)NC(=O)[C@H](C(C)C)NC(=O)[C@H](CC3CCCCC3)NC(=O)[C@H](CCN)NC(=O)[C@@H](CC(C)C)NC(=O)[C@H](C)N(C)C(=O)[C@H](C(C)C)NC(=O)[C@H](Cc3ccc(-c4ccccc4)cc3)NC(=O)[C@H](C(C)C)NC2=O)c1 [Example 2414] ({CH2CO}-[Dap]Y(Carboxymethyl)D[Phe(3-Me)]V[Bip]V[NMeA][dL][Dab][Cha]V[Orn]C[NMeAEEA][Aun]-OH; thioether N-14)
4,7.39,CC(=O)NCCCC[C@@H]1NC(=O)[C@H](Cc2ccc(-c3ccccc3)cc2)NC(=O)[C@H](C(C)C)NC(=O)[C@H](Cc2cccc(C)c2)NC(=O)[C@H](CC(=O)O)NC(=O)[C@H](Cc2ccc(OCC(=O)O)cc2)NC(=O)[C@H](CN)NC(=O)CSC[C@@H](C(=O)N(C)CCOCCOCC(=O)NCCCCCCCCCCC(=O)O)NC(=O)[C@H](CCCN)NC(=O)[C@H](C(C)C)NC(=O)[C@H](CC2CCCCC2)NC(=O)[C@H](CCN)NC(=O)[C@@H](CC(C)C)NC(=O)[C@H](C)N(C)C1=O [Example 2415] ({CH2CO}-[Dap]Y(Carboxymethyl)D[Phe(3-Me)]V[Bip]K(Ac)[NMeA][dL][Dab][Cha]V[Orn]C[NMeAEEA][Aun]-OH; thioether N-14)
5,6.24,CCC(C)[C@@H]1NC(=O)[C@H](Cc2ccc(-c3ccccc3)cc2)NC(=O)[C@H](C(C)C)NC(=O)[C@H](Cc2cn(C)c3ccccc23)NC(=O)[C@H](CC(=O)O)NC(=O)[C@H](Cc2ccc(OCC(=O)O)cc2)NC(=O)[C@H](C(C)O)NC(=O)CSC[C@@H](C(=O)N[C@@H](CCCN)C(=O)NCCCCCCCCCCC(=O)O)NC(=O)[C@H](C(C)O)NC(=O)[C@H](C(C)C)NC(=O)[C@H](CC2CCCCC2)NC(=O)[C@H](CCN)NC(=O)[C@@H](CC(C)C)NC(=O)[C@H](C)N(C)C1=O (stereo partly drawn) [Example 2416] ({CH2CO}-[Thr(3ξ)]Y(Carboxymethyl)D[Trp(1-Me)]V[Bip][Ile(3ξ)][NMeA][dL][Dab][Cha]V[Thr(3ξ)]C[Orn][Aun]-OH; thioether N-14)
6,7.49,CCC(C)[C@@H]1NC(=O)[C@H](Cc2ccc(-c3ccccc3)cc2)NC(=O)[C@H](C(C)C)NC(=O)[C@H](Cc2c[nH]c3ccccc23)NC(=O)[C@H](CC(=O)O)NC(=O)[C@H](Cc2ccc(OCC(=O)O)cc2)NC(=O)[C@H](C(C)O)NC(=O)CSC[C@@H](C(=O)N[C@@H](CCCN)C(=O)N[C@@H](CCC(=O)NCCCCCCCCCCCC(=O)O)C(=O)O)NC(=O)[C@H](C(C)O)NC(=O)[C@H](C(C)C)NC(=O)[C@H](CC2CCCCC2)NC(=O)[C@H](CCN)NC(=O)[C@@H](CC(C)C)NC(=O)[C@H](C)N(C)C1=O (stereo partly drawn) [Example 2417] ({CH2CO}-[Thr(3ξ)]Y(Carboxymethyl)DWV[Bip][Ile(3ξ)][NMeA][dL][Dab][Cha]V[Thr(3ξ)]C[Orn][γGlu][12Ado]-OH; thioether N-14)
7,7.33,CCC(C)[C@@H]1NC(=O)[C@H](Cc2ccc(-c3ccccc3)cc2)NC(=O)[C@H](C(C)C)NC(=O)[C@H](Cc2c[nH]c3ccccc23)NC(=O)[C@H](CC(=O)O)NC(=O)[C@H](Cc2ccc(OCC(=O)O)cc2)NC(=O)[C@H](C(C)O)NC(=O)CSC[C@@H](C(=O)N[C@@H](CCCN)C(=O)N[C@@H](CCC(=O)NCCCCCCCCCCCC(=O)O)C(=O)O)NC(=O)[C@H](C(C)O)NC(=O)[C@H](C(C)C)NC(=O)[C@H](CC2CCCCC2)NC(=O)[C@H](CCN)NC(=O)[C@@H](CC(C)C)NC(=O)[C@H](C)N(C)C1=O (stereo partly drawn) [Example 2418] ({CH2CO}-[Thr(3ξ)]Y(Carboxymethyl)DWV[Bip][Ile(3ξ)][NMeA][dL][Dab][Cha]V[Thr(3ξ)]C[Orn][γGlu][12Ado]-OH; thioether N-14)

# — patent publication US20260070945A1, “MACROCYCLIC IMMUNOMODULATORS” (Bristol-Myers Squibb Company, priority 2022, published 2026)
